Measured values reported in patent US20040220164A1, “Triaza compound immunoregulatory agents” (priority 2001, published 2004).

How the values were obtained:
CD4 [1] = target: T1, CD4 (Homo sapiens, UniProt P01730); experiment: Cell surface CD4 expression by flow cytometry (anti-CD4 mAb Leu3a-PE); format: cell-based; set-up: To study the effect of the CADA derivatives on surface CD4 antigen expression, MT-4 and SupT1 cells were incubated; endogenous in cells; host or cells: MT-4, SupT1, PBMC; conditions: for CD4 cell surface antigen expression: percentage of positive cells, unit not given; for surface CD4 antigen expression: CADA 3.2 μM; for percentage of cell surface CD4 expression: ATA 24 μM, PMA 8 nM (FIG. 4)
Outline: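 MT-4, SupT1 cells and PBMCs were exposed at 37° C to CADA hydrochloride (3.2 or 16 μM) for 20 min to 4 days, with ATA (24 μM) and PMA (8 nM) as comparators in SupT1. Cells were stained with PE-anti-CD4 (Leu3a) for 20 min at 4° C and fixed in 1% formaldehyde. Read-out was flow cytometry as % positive cells and MFI.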

CD4 [2] = target: T1, CD4; experiment: Quantification of the CD4 receptor by antibody binding; format: cell-based; set-up: endogenous in cells; the paragraph deals with MT-4, SupT1 cells and PBMCs; conditions: after treatment with CADA
Description: Table 4 presents the results for MT-4 cells pretreated with CADA for 1 day at 8.1 μM and then infected with the HIV-1 strain NL4.3 or RF in the presence or absence of CADA. […] As three CD4 binding events are needed to efficiently activate HIV-1 Env trimers (Layne, S. P., et al., Nature 346: 602-605 (1990)), multimeric CD4 binding is required for HIV infection, further confirming that receptor density plays a crucial role in the efficiency of viral infectivity (Platt, E. J., et al., J. Virol. 71: 883-890 (1997)). […] Primary HIV isolates seem to be much more dependent on the level of CD4 expression (Kabat; D., et al., J. Virol. 68:2570-2577 (1994)). […] Although CD4-independent viruses are described (Hofflian, T. L., et al., Proc. Natl. Acad. Sci. U.S.A. 96: 63 59-6364 (1999)), these are much more sensitive to neutralization by antibodies, which explains the rarity of CD4-independent wild-type HIV variants (Kolchinski, P., et al., J. Virol. 75: 204 1-2050 (2001)).

CXCR4 = experiment: Cell surface expression of HIV coreceptor; format: cell-based, human; conditions: incubation of the cells with CADA for 4 days
Description: (§1) Expression of various other surface antigens was also examined in MT-4 cells, SupT1 cells and PBMCs after incubation with CADA (16 μM) or CADA-free medium at 37° C. for 4 days. After washing with phosphate-buffered saline (PBS) containing 2% FCS(fetal calf serum), the cells were incubated with mAb (as indicated in Table 1) for 20 min at 4° C. Then the cells were washed, fixed with 1% formaldehyde and analyzed by flow cytometry. All mAbs were purchased from Becton-Dickinson (Erembodegem, Belgium).

CCR5 = experiment: Cell surface expression of HIV coreceptor; format: cell-based, human; conditions: incubation of the cells with CADA for 4 days
Description: as §1

[3] = test system: 6 different primary HIV-1 isolates; experiment: Activity against primary HIV-1 isolates in PBMCs; format: cell-based; conditions: read-out: activity against primary HIV-1 isolates, range
[4] = Cytotoxic concentration (Example 2); format: cell-based; conditions: human, MT-4 cells; read-out: cytotoxic concentration (CC50)

C=C1CN(S(=O)(=O)c2ccc(C)cc2)CCCN(Cc2ccccc2)CCCN(S(=O)(=O)c2ccc(C)cc2)C1 [CADA]
CD4 cell surface antigen expression (CD4 [1]; MT-4 T-cells, CADA 16 μM, 4 days): 6.3
surface CD4 antigen expression (CD4 [1]; MT-4 cells, 1 day, control 95.6%): 4.9%
surface CD4 antigen expression (CD4 [1]; MT-4 cells, 4 days, control 95.6%): 6.3%
percentage of CD4 expression (CD4 [1]; PBMCs, CADA 16 μM, 4 days): 0.2%
CD4 cell surface antigen expression (CD4 [1]; PBMCs, CADA 16 μM, 4 days): 0.2
CD4 cell surface antigen expression (CD4 [1]; SupT1 T-cells, CADA 16 μM, 4 days): 1.2
percentage of cell surface CD4 expression (CD4 [1]; SupT1 cells, 20 minutes, CADA 16 μM): still as high as in the untreated cells
percentage of cell surface CD4 expression (CD4 [1]; SupT1 cells, 4 hours, CADA 16 μM): still as high as in the untreated cells
percentage of cell surface CD4 expression (CD4 [1]; SupT1 cells, 1 day, CADA 16 μM): decrease became clearly visible
percentage of cell surface CD4 expression (CD4 [1]; SupT1 cells, 4 days, CADA 16 μM): 1.2%
surface CD4 antigen expression (CD4 [1]; SupT1 cells, 1 day, control 96.4%): 46.4%
surface CD4 antigen expression (CD4 [1]; SupT1 cells, 4 days, control 96.4%): 1.2%
effect of human serum on CD4 down-modulation induced by CADA (CD4 [1]; presence of human serum): did not affect
amount of CD4 Ab bound to the cells (CD4 [2]): approximately 5,000 /cell
decrease in bound antibody (CD4 [2]): ~90%
cell surface expression of CXCR4 (CXCR4): remained unchanged
cell surface expression of CCR5 (CCR5): remained unchanged
IC50 [3]: 0.002 to 2.3 µM
CC50 [4]: 134 µM

C=C1CN(S(=O)(=O)c2ccc(C)cc2)CCCN(CC2CCCCC2)CCCN(S(=O)(=O)c2ccc(C)cc2)C1 [QJ028]
down-regulation of CD4 expression (in words) (CD4 [1]): down-regulate CD4 expression

C=C1CN(S(=O)(=O)c2ccc(C)cc2)CCCN(C(=O)OCCC)CCCN(S(=O)(=O)c2ccc(C)cc2)C1 [QJ033]
down-regulation of CD4 expression (in words) (CD4 [1]): down-regulate CD4 expression
